Data published in patent US5212165A, “Method for rehabilitating the vasorelaxant action of the coronary arteries impaired through atherosclerosis or hypercholesterolemia employing an ACE inhibitor” (E. R. Squibb & Sons, Inc., priority 1989, dated 1993).
“Also recorded” adds a separate entry of the source.

Assays:
[1] = test system: alpha-adrenoceptor (isolated iliac arteries); experiment: Contractile responses to phenylephrine of isolated iliac arteries from cynomolgus monkeys; parameters: species or system cynomolgus (Macaca fascicularis) monkeys
From the text: (§1) Twenty-four male cynomolgus (Macaca fascicularis) monkeys were divided into four groups of six animals each. During the course of the study, one of the control monkeys was sacrificed due to ill health unrelated to the study. Each group was fed a different diet for six months. The control group ate a normal diet of monkey biscuit. The cholesterol group ate a specially formulated monkey diet containing cholesterol. The cholesterol +low captopril group ate the cholesterol diet supplemented with captopril (50 mg/kg divided into two daily doses). The cholesterol+high captopril group ate the cholesterol diet and a higher total dose of captopril (100 mg/kg divided into two daily doses).
(§2) The monkeys were sedated with an intramuscular injection of ketamine (10 mg/kg), then anesthetized with pentobarbital (25 mg/kg). The iliac arteries were carefully dissected, cleaned of surrounding connective tissue, and refrigerated overnight for use the following day.
(§3) On the day of the experiment, three iliac rings (3 mm wide) from each animal were cut and mounted for isometric force recording. Each ring was attached to a micrometer for the control of muscle length and to a Grass FT.03 force transducer and Grass 7D recorder. The rings were placed in warm (37° C.), oxygenated, physiological salt solution (PSS) of the following composition (in mM): 140.0 NaCl, 4.7 KCl, 1.2 MgSO4, 1.6 CaCl2, 1.2 NaH2 PO4, 5.6 D-glucose, 2.0 2-(N-morpholino)propanesulfonic acid (MOPS, pH 7.4 at 37° C.), and 0.02 Na2 -ethylenediaminetetraacetic acid (EDTA). The rings were stretched to a preload of 5 g during a 2 hour equilibration period, then stimulated with 1 μM phenylephrine to test for viability and relaxed with 100 nM acetylcholine to test for endothelial function. Stock solutions of phenylphrine, acetylcholine, propranolol, and sodium nitroprusside were prepared daily in water; nifedipine stock solutions were prepared daily in ethanol.
(§4) Alpha-adrenoceptor and endothelial cell function were examined in the third ring from each monkey. In the presence of 0.1 μM propranolol, a cumulative concentration-response curve to phenylephrine was obtained, then the phenylephrine was washed out of the baths and the rings were allowed to relax completely. The rings were subsequently contracted with an EC50 concentration of phenylephrine (1 μM) and, following stabilization of the contraction, the rings were treated with increasing concentrations of acetylcholine, followed by 100 nM sodium nitroprusside.
(§5) Data are presented as mean±SEM. The IC50 and EC50 values were estimated by linearly interpolating from the concentration-response curves. The EC50 values for each ring were used to determine the means for each treatment group.
Phenylephrine concentration-response curves were obtained in iliac rings from all groups of monkeys.

rat aortic rings = conditions: Hartich et al, Shultz et al, cited from earlier work
guinea pig or rat lungs = conditions: guinea pig lungs; cited from earlier work
[2] = test system: voltage-dependent calcium channels (iliac rings); experiment: Relaxation responses to nifedipine of CaCl2-contracted iliac rings from cynomolgus monkeys; parameters: species or system cynomolgus (Macaca fascicularis) monkeys; conditions: cholesterol-fed monkeys, with captopril
From the text: as §1, §2, §3
The voltage-dependent calcium channels were studied in one ring from each monkey. The protocol consisted of depleting the cells of calcium by exposing the rings to a Ca-free, EGTA (ethylene glycol-bis(β-aminoethyl ether)N,N,N',N'-tetraacetic acid) PSS (omission of CaCl2 and addition of 0.1 mM EGTA) for 30 minutes. The EGTA was subsequently removed from the tissues with three washes of Ca-free PSS (simple omission of CaCl2). Following that, the rings were bathed in Ca-free, K^+ PSS (omission of CaCl2 and isoosmotic substitution of KCl for NaCl such that the KCl concentration was 110 mM) for 30 minutes. A CaCl2 concentration-response curve was obtained by replacing the bath solution with K^+ PSS containing incremental increases in CaCl2 concentration (0.1, 0.3, 0.5, 1.0, 1.25, 1.6, and 2.5 mM). The maximal contractions, in response to 2.5 mM CaCl2, were then relaxed incrementally with nifedipine. Another iliac ring (fade control) from each monkey was subjected to the same protocol with the exception that the strips were allowed to remain contracted and the nifedipine concentration-response curve was not obtained. Some fade of the CaCl2 -induced force was observed over the time period required for the nifedipine concentration-response curve. This fade was accounted for by decreasing the amount of relaxation observed upon addition of nifedipine by the amount of fade observed in the time control from the same monkey.
Data are presented as mean±SEM. The IC50 and EC50 values were estimated by linearly interpolating from the concentration-response curves. […]

[3] = test system: bovine aortic endothelial cells; conditions: cited from earlier work
[4] = test system: phenylephrine-contracted isolated iliac arteries; experiment: Acetylcholine-induced relaxation of phenylephrine-contracted isolated iliac arteries from cynomolgus monkeys; parameters: species or system cynomolgus (Macaca fascicularis) monkeys; conditions: for maximum force generated in response to phenylephrine (before acetylcholine): mean±SEM
From the text: as §1, §2, §3, §4, §5
For each monkey, the EC50 for acetylcholine relaxation was calculated by linearly interpolating from the concentration-response curves. When 50% relaxation was not achieved, the value of the EC50 was set to 30 μM a value larger than any of the experimental concentrations of acetylcholine).
Linear contrast of mean ranks in the groups were constructed with a variance estimate for the contrast based on the Kruskal-Wallis statistic (Dunn 1964).
In the analyses, the following coefficients were employed: i) for an overall test, the coefficients were 3 for the cholesterol group, 1 for the control group, -1 for the cholesterol+low captopril group, and -3 for the cholesterol+high captopril group, based on prior expectations of likely results; ii) for a test of the cholesterol effect, the coefficients were 1 for the cholesterol group, -1 for the control group, 0 for the cholestrol+low captopril group, and 0 for the cholesterol+high captopril group; iii) for a test of the captopril effect, the coefficients were 0 for the cholesterol group, 1 for the […], 0 for the cholesterol+low captopril group, and -1 for the cholesterol+high captopril group.
All statistical results reported are based on one-sided tests. […]

isolated rat hearts = conditions: van Gilst et al; cited from earlier work

## C[C@H](CS)C(=O)N1CCC[C@H]1C(=O)O [captopril, 1-[(2S)-3-mercapto-2-methylpropionyl]-L-proline]
[1]; Cholesterol + High Captopril (100 mg/kg daily, six months), Mean ± SEM
  Max Force (phenylephrine-induced contraction): 19.2 ± 2.2 g
[1]; Cholesterol + Low Captopril (50 mg/kg daily, six months), Mean ± SEM
  Max Force (phenylephrine-induced contraction): 18.4 ± 2.8 g
[1]; Macaca fascicularis, Cholesterol + High Captopril (100 mg/kg daily, six months), Mean ± SEM, read-out: EC50 (phenylephrine-induced contraction)
  EC50 at 100 mg/kg: 1.3 ± 0.6 µM
[1]; Macaca fascicularis, Cholesterol + Low Captopril (50 mg/kg daily, six months), Mean ± SEM, read-out: EC50 (phenylephrine-induced contraction)
  EC50 at 50 mg/kg: 1 ± 0.2 µM
[1]; cholesterol-fed monkeys, with captopril
  effect on in vitro response of iliac arteries to phenylephrine: neither cholesterol nor captopril affected
Rat aortic rings; in vitro
  endothelium dependent relaxation of normal rat aortic rings: enhance endothelium dependent relaxation
Rat aortic rings; without cholesterol
  effect of acetylcholine in rat aortic rings after captopril feeding alone: potentiate the effects of acetylcholine
Guinea pig or rat lungs
  effect on removal of endothelin by guinea pig lungs: without being affected by captopril
[2]
  effect on in vitro response of iliac arteries to nifedipine: neither cholesterol nor captopril affected
[3]; captopril 10 mu.K (so in the source)
  release of prostacyclin or EDRF induced by bradykinin: did not affect the release
[3]
  release of EDRF (direct): ineffective as releasers of EDRF
[4]; Macaca fascicularis, Cholesterol + High Captopril (100 mg/kg daily, six months), N 5, non-responder excluded, Mean ± SEM
  EC50 at 100 mg/kg: 0.1 ± 0.01 µM
[4]; arteries from hypercholesterolemic and atherosclerotic monkeys
  endothelium-dependent vasorelaxant effects: enhance endothelium-dependent vasorelaxant effects
[4]; captopril as compared with cholesterol alone
  shift of EC50 concentration for acetylcholine: statistically significant effect of captopril as compared with cholesterol; also recorded: significantly shifted the EC50 concentration for acetylcholine to the left
[4]; cholesterol diet and low dose captopril
  rings not showing 50% relaxation in response to acetylcholine: One ring did not show 50% relaxation
[4]; cholesterol fed, high daily dose of captopril, six animals
  iliac rings responsive to acetylcholine: Five of the iliac rings
[4]; cholesterol+high captopril group, non-responders excluded
  maximum force generated in response to phenylephrine (before acetylcholine): 11.9 ± 2.1 g
[4]; cholesterol+low captopril group
  maximum force generated in response to phenylephrine (before acetylcholine): 12.4 ± 2.2 g
[4]; vs cholesterol diet without captopril
  potency and efficacy of acetylcholine in iliac rings from cholesterol-fed monkeys which received captopril: significantly more potent and efficacious
Isolated rat hearts
  coronary vasodilatory mechanism: potentiates the effect of locally increased BK
